Measurements: PubChem BioAssay (NCI)
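Interpolation was linear, between the two tested concentrations surrounding the appropriate level; five concentrations were tested over 48 hours in 96-well plates. GI50 marks 50% less growth. The concentration for full growth arrest is given as TGI.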

Assays:
Assay in all cases: inhibition of tumour cell growth, NCI panel, 48 h
[1] = test system: SR leukemia
[2] = test system: K-562 leukemia
[3] = test system: SK-MEL-28 melanoma
[4] = test system: KM12 colon
[5] = test system: HOP-92 NSCLC
[6] = test system: DU-145 prostate
[7] = test system: SW-620 colon
[8] = test system: UO-31 renal
[9] = test system: MOLT-4 leukemia
[10] = test system: M14 melanoma
[11] = test system: RXF 393 renal

SMILES	TGI [1]	TGI [2]	TGI [3]	TGI [4]	TGI [5]	TGI [6]	TGI [7]	TGI [8]	TGI [9]	TGI [10]	GI50 [3]	GI50 [11]	TGI [11]	GI50 [5]	GI50 [6]	GI50 [8]	GI50 [1]	GI50 [4]	GI50 [7]	GI50 [9]
C/C(=N\NC(=S)N1CCOCC1)c1nc2ncccc2[nH]1	> 100 µM	> 100 µM	> 100 µM	> 100 µM	68 µM	> 100 µM	> 100 µM	96.2 µM	> 100 µM	> 100 µM	–	–	–	–	–	–	–	–	–	–
Cc1cc(Nc2ccc(Cl)cc2)nc(NCCCNc2ccnc3cc(Cl)ccc23)n1	–	–	3.31 µM	–	2.53 µM	3.35 µM	–	2.96 µM	–	–	1.81 µM	1.52 µM	3.08 µM	1.01 µM	1.84 µM	1.49 µM	–	–	–	–
NC(Cc1ccccc1CP(=O)(O)O)C(=O)O (centres undefined)	> 100 µM	> 100 µM	> 100 µM	> 100 µM	> 100 µM	> 100 µM	> 100 µM	> 100 µM	> 100 µM	> 100 µM	–	–	> 100 µM	–	–	–	–	–	–	–
CC(C)=CCC/C(C)=C/C=C/C(C)=C/C1C[C@@]2(C(O)O1)[C@H](CCCO)/C(=C(/C)C=O)CC[C@]2(C)O (some centres undefined)	37.2 µM	28.4 µM	32.3 µM	–	–	–	27.8 µM	33.9 µM	30.8 µM	32.2 µM	–	–	35.2 µM	–	–	–	–	–	–	–
COc1cc2c(cc1OCCCOc1ccc(-c3cc4ccccc4c4ccccc34)cc1)N=C[C@@H]1CCCN1C2=O	0.717 µM	> 100 µM	1.38 µM	2.06 µM	1.53 µM	1.42 µM	1.86 µM	0.593 µM	0.432 µM	–	0.555 µM	0.24 µM	0.624 µM	0.334 µM	0.385 µM	0.169 µM	0.222 µM	0.787 µM	0.513 µM	0.186 µM
CCOC(=O)c1csc(NC(=O)C(C)N2CCOCC2)n1 (centres undefined)	> 100 µM	> 100 µM	> 100 µM	> 100 µM	> 100 µM	> 100 µM	> 100 µM	> 100 µM	> 100 µM	> 100 µM	–	–	> 100 µM	–	–	–	–	–	–	–
COC(=O)C(NC(=O)c1ccccc1)C(c1c(O)cc(O)cc1O)P(=O)(OC)OC (centres undefined)	> 100 µM	> 100 µM	> 100 µM	> 100 µM	> 100 µM	–	> 100 µM	> 100 µM	> 100 µM	> 100 µM	–	–	–	–	–	–	–	–	–	–
COc1cc(/C=C2/Oc3c(OC)cccc3C2=O)ccc1O	> 100 µM	> 100 µM	> 100 µM	> 100 µM	> 100 µM	> 100 µM	> 100 µM	> 100 µM	> 100 µM	> 100 µM	–	–	> 100 µM	–	–	–	–	–	–	–
